pIC50: −log10 of the molar value.
target: T1, TNIK kinase [amino acid sequence (1-367), Invitrogen] (Homo sapiens, UniProt Q9UKE5); assay: TNIK kinase inhibition assay (Z-lyte FRET-peptide); assay type: biochemical; settings: 0.625 nM TNIK kinase, 2 μM Ser/Thr 7 peptide, 64 μM ATP, one hour at room temperature
T1 construct: purchased Invitrogen
Experimental: Z-lyte assay kit was purchased from Invitrogen. A site-specific protease recognizes and cleaves non-phosphorylated FRET-peptides. Phosphorylation of FRET-peptides suppresses cleavage by protease and will maintain FRET from donor to acceptor.
5 μl of Development Reagent A solution was then added to cleave non-phosphorylated peptide with a dilution 1:65000 in Development Buffer B. The assay plate was incubated at room temperature for another one hour and then read in the Envision plate reader (PerkinElmer).

T1 sequence (Q9UKE5 1-367): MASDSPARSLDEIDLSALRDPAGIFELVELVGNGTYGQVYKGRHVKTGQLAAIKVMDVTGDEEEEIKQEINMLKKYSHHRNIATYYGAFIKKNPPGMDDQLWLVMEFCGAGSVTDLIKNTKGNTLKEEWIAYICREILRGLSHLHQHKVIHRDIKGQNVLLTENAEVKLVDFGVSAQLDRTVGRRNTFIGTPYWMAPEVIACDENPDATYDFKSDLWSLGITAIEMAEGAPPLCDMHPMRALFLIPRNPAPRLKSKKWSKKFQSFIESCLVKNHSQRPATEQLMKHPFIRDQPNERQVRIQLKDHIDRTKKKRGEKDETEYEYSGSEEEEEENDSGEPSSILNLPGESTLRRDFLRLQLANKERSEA

Row | SMILES | pIC50
1 | CC(C)n1cnc(-c2ccc(F)cc2)c1-c1coc(C(=O)Nc2ccc(N3CCN(C)CC3)cc2F)n1 [Compound 27, N-(2-fluoro-4-(4-methylpiperazin-1-yl)phenyl)-4-(4-(4-fluorophenyl)-1-isopropyl-1H-imidazol-5-yl)oxazole-2-carboxamide] | 6.82 to 7.92
2 | CN1CCN(c2ccc(NC(=O)c3csc(-c4c(-c5ccc(F)cc5)nc5n4CCOC5)n3)nc2)CC1 [Compound 29, 2-(2-(4-fluorophenyl)-6,8-dihydro-5H-imidazo[2,1-c][1,4]oxazin-3-yl)-N-(5-(4-methylpiperazin-1-yl)pyridin-2-yl)thiazole-4-carboxamide] | 7.92 to 9.00
3 | CC(C)n1cnc(-c2ccc(F)cc2)c1-c1csc(C(=O)Nc2ccc(N3C[C@H]4CC[C@@H](C3)N4C)cn2)n1 [Compound 38, 4-(4-(4-fluorophenyl)-1-isopropyl-1H-imidazol-5-yl)-N-(5-((1R,5S)-8-methyl-3,8-diazabicyclo[3.2.1]octan-3-yl)pyridin-2-yl)thiazole-2-carboxamide] | 7.92 to 9.00
4 | CC(C)n1cnc(-c2ccc(F)cc2)c1-c1coc(C(=O)Nc2ccc(N3CC4CCC(C3)N4C)cn2)n1 [Compound 39, 4-(4-(4-fluorophenyl)-1-isopropyl-1H-imidazol-5-yl)-N-(5-(8-methyl-3,8-diazabicyclo[3.2.1]octan-3-yl)pyridin-2-yl)oxazole-2-carboxamide] | 6.82 to 7.92
5 | CC(C)n1cnc(-c2ccc(F)cc2)c1-c1nc(C(=O)Nc2ncc(N3CCN(C)CC3)cn2)cs1 [Compound 46, 2-(4-(4-fluorophenyl)-1-isopropyl-1H-imidazol-5-yl)-N-(5-(4-methylpiperazin-1-yl)pyrimidin-2-yl)thiazole-4-carboxamide] | < 6.82
6 | CN1C2CCC1CN(c1ccc(NC(=O)c3c[nH]c(-c4c(-c5ccc(F)cc5)ncn4C4CC4)n3)nc1)C2 [Compound 47, 3′-cyclopropyl-5′-(4-fluorophenyl)-N-(5-(8-methyl-3,8-diazabicyclo[3.2.1]octan-3-yl)pyridin-2-yl)-1H,3′H-[2,4′-biimidazole]-4-carboxamide] | 7.92 to 9.00
7 | CN1[C@@H]2CC[C@H]1CN(c1ccc(NC(=O)c3c[nH]c(-c4c(-c5ccc(F)cc5)ncn4C4CCC4)n3)nc1)C2 [Compound 48, 3′-cyclobutyl-5′-(4-fluorophenyl)-N-(5-((1R,5S)-8-methyl-3,8-diazabicyclo[3.2.1]octan-3-yl)pyridin-2-yl)-1H,3′H-[2,4′-biimidazole]-4-carboxamide] | 7.92 to 9.00
8 | CN1C2CC1CN(c1ccc(NC(=O)c3c[nH]c(-c4c(-c5ccc(F)cc5)ncn4C4CC4)n3)nc1)C2 [Compound 49, 3′-cyclopropyl-5′-(4-fluorophenyl)-N-(5-(6-methyl-3,6-diazabicyclo[3.1.1]heptan-3-yl)pyridin-2-yl)-1H,3′H-[2,4′-biimidazole]-4-carboxamide] | 6.82 to 7.92
9 | CN1C2CC1CN(c1ccc(NC(=O)c3c[nH]c(-c4c(-c5ccc(F)cc5)ncn4C4CCC4)n3)nc1)C2 [Compound 50, 3′-cyclobutyl-5′-(4-fluorophenyl)-N-(5-(6-methyl-3,6-diazabicyclo[3.1.1]heptan-3-yl)pyridin-2-yl)-1H,3′H-[2,4′-biimidazole]-4-carboxamide] | 7.92 to 9.00
10 | CC(C)n1cnc(-c2ccc(F)cc2)c1-c1nc(C(=O)Nc2ccc(C3CCN(C)CC3)cn2)c[nH]1 [Compound 52, 5′-(4-fluorophenyl)-3′-isopropyl-N-(5-(1-methylpiperidin-4-yl)pyridin-2-yl)-1H,3′H-[2,4′-biimidazole]-4-carboxamide] | 7.92 to 9.00
11 | CC(C)n1cnc(-c2ccc(F)cc2)c1-c1nc(C(=O)Nc2ccc(C3C[C@H]4CC[C@@H](C3)N4C)cn2)cs1 (stereo partly drawn) [Compound 60, 2-(4-(4-fluorophenyl)-1-isopropyl-1H-imidazol-5-yl)-N-(5-((1R,5S)-8-methyl-8-azabicyclo[3.2.1]octan-3-yl)pyridin-2-yl)thiazole-4-carboxamide] | 7.92 to 9.00
12 | O=C(Nc1ccc(N2CCOCC2)cn1)c1c[nH]c(-c2c(-c3ccc(F)cc3)ncn2C2CC(F)(F)C2)n1 [Compound 67, 3′-(3,3-difluorocyclobutyl)-5′-(4-fluorophenyl)-N-(5-morpholinopyridin-2-yl)-1H,3′H-[2,4′-biimidazole]-4-carboxamide] | 6.82 to 7.92
13 | O=C(Nc1ccc(N2CCC2)cn1)c1coc(-c2c(-c3ccc(F)cc3)ncn2C2CC(F)(F)C2)n1 [Compound 69, N-(5-(azetidin-1-yl)pyridin-2-yl)-2-(1-(3,3-difluorocyclobutyl)-4-(4-fluorophenyl)-1H-imidazol-5-yl)oxazole-4-carboxamide] | < 6.82
14 | O=C(Nc1ccc(N2CCOCC2)cn1)c1coc(-c2c(-c3ccc(F)cc3)ncn2C2COC2)n1 [Compound 71, 2-(4-(4-fluorophenyl)-1-(oxetan-3-yl)-1H-imidazol-5-yl)-N-(5-morpholinopyridin-2-yl)oxazole-4-carboxamide] | < 6.82
15 | O=C(Nc1ccc(N2CCC2)cn1)c1c[nH]c(-c2c(-c3ccc(F)cc3)ncn2C2CC(F)(F)C2)n1 [Compound 73, N-(5-(azetidin-1-yl)pyridin-2-yl)-3′-(3,3-difluorocyclobutyl)-5′-(4-fluorophenyl)-1H,3′H-[2,4′-biimidazole]-4-carboxamide] | 6.82 to 7.92
16 | O=C(Nc1ccc(N2CCC2)cn1)c1csc(-c2c(-c3ccc(F)cc3)ncn2C2COC2)n1 [Compound 75, N-(5-(azetidin-1-yl)pyridin-2-yl)-2-(4-(4-fluorophenyl)-1-(oxetan-3-yl)-1H-imidazol-5-yl)thiazole-4-carboxamide] | 7.92 to 9.00
17 | O=C(Nc1ccc(N2CCCC2)cn1)c1c[nH]c(-c2c(-c3ccc(F)cc3)ncn2C2CC(F)(F)C2)n1 [Compound 76, 3′-(3,3-difluorocyclobutyl)-5′-(4-fluorophenyl)-N-(5-(pyrrolidin-1-yl)pyridin-2-yl)-1H,3′H-[2,4′-biimidazole]-4-carboxamide] | 6.82 to 7.92
18 | O=C(NC1CCOCC1)c1csc(-c2c(-c3ccc(F)cc3)ncn2C2CC(F)(F)C2)n1 [Compound 77, 2-(1-(3,3-difluorocyclobutyl)-4-(4-fluorophenyl)-1H-imidazol-5-yl)-N-(tetrahydro-2H-pyran-4-yl)thiazole-4-carboxamide] | < 6.82
19 | O=C(Nc1ccc(C2COC2)cn1)c1csc(-c2c(-c3ccc(F)cc3)ncn2C2COC2)n1 [Compound 78, 2-(4-(4-fluorophenyl)-1-(oxetan-3-yl)-1H-imidazol-5-yl)-N-(5-(oxetan-3-yl)pyridin-2-yl)thiazole-4-carboxamide] | 7.92 to 9.00
20 | O=C(Nc1ccc(N2CCC2)cn1)c1coc(-c2c(-c3ccc(F)cc3)ncn2C2COC2)n1 [Compound 79, N-(5-(azetidin-1-yl)pyridin-2-yl)-2-(4-(4-fluorophenyl)-1-(oxetan-3-yl)-1H-imidazol-5-yl)oxazole-4-carboxamide] | 6.82 to 7.92
21 | O=C(Nc1ccc(C2COC2)cc1F)c1coc(-c2c(-c3ccc(F)cc3)ncn2C2COC2)n1 [Compound 80, N-(2-fluoro-4-(oxetan-3-yl)phenyl)-2-(4-(4-fluorophenyl)-1-(oxetan-3-yl)-1H-imidazol-5-yl)oxazole-4-carboxamide] | 6.82 to 7.92
22 | O=C(Nc1ccc(C2COC2)cn1)c1coc(-c2c(-c3ccc(F)cc3)ncn2C2COC2)n1 [Compound 82, 2-(4-(4-fluorophenyl)-1-(oxetan-3-yl)-1H-imidazol-5-yl)-N-(5-(oxetan-3-yl)pyridin-2-yl)oxazole-4-carboxamide] | 6.82 to 7.92
23 | CC(C)c1noc(-c2ccc(F)cc2)c1-c1nc(C(=O)Nc2ccc(C3CN(C)C3)cc2F)cs1 [Compound 87, N-(2-fluoro-4-(1-methylazetidin-3-yl)phenyl)-2-(5-(4-fluorophenyl)-3-isopropylisoxazol-4-yl)thiazole-4-carboxamide] | 7.92 to 9.00
24 | CC(C)c1noc(-c2ccc(F)cc2)c1-c1nc(C(=O)Nc2ccc(C3CN(C)C3)cn2)cs1 [Compound 89, 2-(5-(4-fluorophenyl)-3-isopropylisoxazol-4-yl)-N-(5-(1-methylazetidin-3-yl)pyridin-2-yl)thiazole-4-carboxamide] | 6.82 to 7.92
25 | CC(C)n1cnc(-c2ccc(F)cc2)c1-c1nc(C(=O)Nc2ccc(C3CN(C)C3)cc2F)co1 [Compound 101, N-(2-fluoro-4-(1-methylazetidin-3-yl)phenyl)-2-(4-(4-fluorophenyl)-1-isopropyl-1H-imidazol-5-yl)oxazole-4-carboxamide] | 7.92 to 9.00
26 | CN1C2CC1CN(c1ccc(NC(=O)c3coc(-c4c(-c5ccc(F)cc5)ncn4C4CC(F)(F)C4)n3)c(F)c1)C2 [Compound 103, 2-(1-(3,3-difluorocyclobutyl)-4-(4-fluorophenyl)-1H-imidazol-5-yl)-N-(2-fluoro-4-(6-methyl-3,6-diazabicyclo[3.1.1]heptan-3-yl)phenyl)oxazole-4-carboxamide] | 7.92 to 9.00
27 | CC(C)c1onc(-c2ccc(F)cc2)c1-c1nc(C(=O)Nc2ccc(N3CC4CC(C3)N4C)cn2)co1 [Compound 104, 2-(3-(4-fluorophenyl)-5-isopropylisoxazol-4-yl)-N-(5-(6-methyl-3,6-diazabicyclo[3.1.1]heptan-3-yl)pyridin-2-yl)oxazole-4-carboxamide] | 6.82 to 7.92
28 | CC(C)c1onc(-c2ccc(F)cc2)c1-c1nc(C(=O)Nc2ccc(N3CC4CC(C3)N4C)cc2F)co1 [Compound 105, N-(2-fluoro-4-(6-methyl-3,6-diazabicyclo[3.1.1]heptan-3-yl)phenyl)-2-(3-(4-fluorophenyl)-5-isopropylisoxazol-4-yl)oxazole-4-carboxamide] | 6.82 to 7.92
29 | CC(C)c1onc(-c2ccc(F)cc2)c1-c1nc(C(=O)Nc2ccc(C3CN(C)C3)cc2F)co1 [Compound 106, N-(2-fluoro-4-(1-methylazetidin-3-yl)phenyl)-2-(3-(4-fluorophenyl)-5-isopropylisoxazol-4-yl)oxazole-4-carboxamide] | 6.82 to 7.92

Reference: US20240336611A1 (Insilico Medicine IP Limited, priority 2021, published 2024)
